These results are taken from PubChem BioAssay (NCI).

Structures are written as SMILES. “And” between values parts separate entries of the source, which are not always exact repeats. Identical values can stand only once.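 Cultured in 96-well plates, cells were exposed to test compound for 48 hours across five concentrations. GI50 marks 50% less growth. The concentration for full growth arrest is given as TGI.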

One assay relates to SK-MEL-28 melanoma. Put plainly: NCI tumour cell line growth inhibition, 48 h.
As to `CCCCC(=O)OCC1OC(n2cnc3c(=S)nc[nH]c32)C(OC(=O)CCCC)C1OC(=O)CCCC` (stereo not drawn), the GI50 was 57.4 µM and the TGI was more than 100 µM.
For the molecule `O=c1oc2ccc(F)cc2c(=O)n1-c1ccc(F)cc1F`, the GI50 was 2.79 µM and the TGI was 11.7 µM.
The like results for `Cn1cc(-c2cnc3ccc(NC(=O)Nc4ccc(F)c(Br)c4)cc3n2)cn1` were, in that order, 1.9 µM and 3.76 µM.
For `O=C(O)CCCCC(CCSCc1ccccc1)SCc1ccccc1` (stereo not drawn), the GI50 is 45.1 µM and the TGI was more than 100 µM.
The like results for `CC1=C(CCCNS(C)(=O)=O)C2=C(C)C3(CC3)[C@@](C)(O)C(=O)C2=C1` were, in that order, 1.94 µM and 4.75 µM.
`O=C1CNCCCN2CCN(CCCNCC(=O)Nc3ccc(cc3)S(=O)(=O)c3ccc(cc3)NC(=O)CNCCCN3CCN(CCCNCC(=O)Nc4ccc(cc4)S(=O)(=O)c4ccc(cc4)N1)CC3)CC2` came in with a TGI of more than 56.8 µM.
In the case of `N#Cc1ccc(C#Cc2ccccc2C#CCCCCO)cc1`, the GI50 was 25.6 µM and the TGI was 53.7 µM.
Regarding `O=NN(Cc1ccc(Cl)cc1)C(C(=O)O)c1ccccc1` (stereo not drawn), the TGI is more than 100 µM.

In another assay the test system is UACC-257 melanoma. Put plainly: NCI tumour cell line growth inhibition, 48 h.
As to `CCOc1cccc(/C=N/NC(=O)c2ccccc2Nc2ccnc(C(F)(F)F)c2)c1O`, the GI50 was 0.693 µM and the TGI stood at 47.6 µM.
The like results for `COc1ccc2c(c1)c(-c1nc(-c3cn(C)c4ncccc34)cs1)cn2CCCN1CCCCC1` were, in that order, 1.92 µM and 3.66 µM.
The corresponding values for `CSc1cc(N=Nc2nc3ccccc3s2)c2ccccc2c1O` are 11.6 µM and 21.7 µM.
For the molecule `CCOC(=O)/C=C(/C(=O)OCC)n1cc(Cl)c(=O)n(CC(=O)OCC)c1=O`, the GI50 was 20.7 µM; the TGI is 25 µM and 57.9 µM.
For `CC1=C(C(=O)Nc2ccc3[nH]ncc3c2)C(c2ccc3ccccc3c2)CC(=O)N1` (stereo not drawn), the GI50 is more than 25 µM and the TGI is more than 25 µM.
`O=C1NNC=Nc2ccc(cc2)S(=O)(=O)c2ccc(cc2)N=CNNC1=O` had a TGI of more than 100 µM.
On to `CC1OC(O[C@H]2C[C@@H](O)[C@]3(CO)[C@H]4[C@H](O)C[C@]5(C)[C@@H](C6=CC(=O)OC6)CC[C@]5(O)[C@@H]4CC[C@]3(O)C2)C(O)C(O)C1O` (stereo partly drawn), for which the GI50 was 19.5 µM and the TGI worked out at 39.2 µM.
The like results for `CCCCC(=O)OCC1OC(n2cnc3c(=S)nc[nH]c32)C(OC(=O)CCCC)C1OC(=O)CCCC` (stereo not drawn) were, in that order, 11.9 µM and more than 100 µM.
The corresponding values for `O=c1oc2ccc(F)cc2c(=O)n1-c1ccc(F)cc1F` are 2.29 µM and 7.15 µM.
The like results for `Cn1cc(-c2cnc3ccc(NC(=O)Nc4ccc(F)c(Br)c4)cc3n2)cn1` were, in that order, 1.92 µM and 4.57 µM.
Turning to `O=C(O)CCCCC(CCSCc1ccccc1)SCc1ccccc1` (stereo not drawn), the GI50 was more than 67.1 µM and the TGI is more than 100 µM.
Regarding `CC1=C(CCCNS(C)(=O)=O)C2=C(C)C3(CC3)[C@@](C)(O)C(=O)C2=C1`, the GI50 was 1.78 µM and the TGI turned out to be 4.41 µM.
Molecule `O=C1CNCCCN2CCN(CCCNCC(=O)Nc3ccc(cc3)S(=O)(=O)c3ccc(cc3)NC(=O)CNCCCN3CCN(CCCNCC(=O)Nc4ccc(cc4)S(=O)(=O)c4ccc(cc4)N1)CC3)CC2` gave a TGI of 32.7 µM.
In the case of `N#Cc1ccc(C#Cc2ccccc2C#CCCCCO)cc1`, the GI50 was 17.3 µM and the TGI was 31.4 µM.
In turn, `O=NN(Cc1ccc(Cl)cc1)C(C(=O)O)c1ccccc1` (stereo not drawn) had a TGI of more than 100 µM.

In another assay the test system is UACC-62 melanoma. Put plainly: NCI tumour cell line growth inhibition, 48 h.
As for `CCOc1cccc(/C=N/NC(=O)c2ccccc2Nc2ccnc(C(F)(F)F)c2)c1O`, the GI50 was 0.407 µM and the TGI stood at 14.7 µM.
The like results for `COc1ccc2c(c1)c(-c1nc(-c3cn(C)c4ncccc34)cs1)cn2CCCN1CCCCC1` were, in that order, 1.76 µM and 3.2 µM.
For `CSc1cc(N=Nc2nc3ccccc3s2)c2ccccc2c1O`, the GI50 was 5.41 µM and the TGI is 11.9 µM.
On to `CCOC(=O)/C=C(/C(=O)OCC)n1cc(Cl)c(=O)n(CC(=O)OCC)c1=O`, for which the GI50 is 18.6 µM; the TGI is 8.88 µM and 33.6 µM.
Consider `CC1=C(C(=O)Nc2ccc3[nH]ncc3c2)C(c2ccc3ccccc3c2)CC(=O)N1` (stereo not drawn), for which the GI50 is 14.5 µM and the TGI is more than 25 µM.
In the case of `O=C1NNC=Nc2ccc(cc2)S(=O)(=O)c2ccc(cc2)N=CNNC1=O`, the TGI is more than 100 µM.
Consider `CC1OC(O[C@H]2C[C@@H](O)[C@]3(CO)[C@H]4[C@H](O)C[C@]5(C)[C@@H](C6=CC(=O)OC6)CC[C@]5(O)[C@@H]4CC[C@]3(O)C2)C(O)C(O)C1O` (stereo partly drawn), for which the GI50 is 17.6 µM and the TGI came out at 32.4 µM.
The like results for `CCCCC(=O)OCC1OC(n2cnc3c(=S)nc[nH]c32)C(OC(=O)CCCC)C1OC(=O)CCCC` (stereo not drawn) were, in that order, 0.899 µM and more than 100 µM.
The corresponding values for `O=c1oc2ccc(F)cc2c(=O)n1-c1ccc(F)cc1F` are 2.02 µM and 7.52 µM.
Regarding `Cn1cc(-c2cnc3ccc(NC(=O)Nc4ccc(F)c(Br)c4)cc3n2)cn1`, the GI50 was 1.68 µM and the TGI is 3.74 µM.
The corresponding values for `O=C(O)CCCCC(CCSCc1ccccc1)SCc1ccccc1` (stereo not drawn) are 21.5 µM and 60.9 µM.
The corresponding values for `CC1=C(CCCNS(C)(=O)=O)C2=C(C)C3(CC3)[C@@](C)(O)C(=O)C2=C1` are 1.47 µM and 3.45 µM.
As for `O=C1CNCCCN2CCN(CCCNCC(=O)Nc3ccc(cc3)S(=O)(=O)c3ccc(cc3)NC(=O)CNCCCN3CCN(CCCNCC(=O)Nc4ccc(cc4)S(=O)(=O)c4ccc(cc4)N1)CC3)CC2`, the TGI is more than 67.5 µM.
Regarding `N#Cc1ccc(C#Cc2ccccc2C#CCCCCO)cc1`, the GI50 is 15 µM and the TGI worked out at 28.4 µM.
`O=NN(Cc1ccc(Cl)cc1)C(C(=O)O)c1ccccc1` (stereo not drawn) displayed a TGI of more than 100 µM.
